These results are taken from US9346761B2, “Arginine methyltransferase inhibitors and uses thereof” (Epizyme, Inc., priority 2013, dated 2016).

Assay [1] deals with T1, Full-length human PRMT3 (Homo sapiens, UniProt O60678).
T1 construct: GST-tagged PRMT3; made in house; host or cells: E. coli BL21(DE3) Gold (pGEX-KG)
The assay can be described thus: PRMT3 biochemical assay (3H-SAM Flashplate, peptide substrate). Summed up: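 Methylation of a biotinylated peptide (330 nM) by 0.5 nM GST-PRMT3 using 3H-SAM 100 nM with unlabelled SAM 1.8 uM, 20 mM Bicine pH 7.6, 2% DMSO, after 30 min enzyme–compound preincubation. Scintillation counts on streptavidin Flashplates normalised to 1 mM SAH and DMSO controls; curve fits with floating or fixed Hill slope.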

Assay [2] deals with mono-methyl arginine in RKO cells. The assay can be described thus: RKO methylation assay, In Cell Western for mono-methyl arginine and DNA content. Format: cell-based. To be noted: Homo sapiens.
Setting [3] is: In Cell Western, RKO cells, 72 hours, percent activation of mono-methyl arginine signal, read-out: EC30.

Where two headings read alike, the source gives them in different places.

T1 sequence (O60678 with tags, fused parts or gaps): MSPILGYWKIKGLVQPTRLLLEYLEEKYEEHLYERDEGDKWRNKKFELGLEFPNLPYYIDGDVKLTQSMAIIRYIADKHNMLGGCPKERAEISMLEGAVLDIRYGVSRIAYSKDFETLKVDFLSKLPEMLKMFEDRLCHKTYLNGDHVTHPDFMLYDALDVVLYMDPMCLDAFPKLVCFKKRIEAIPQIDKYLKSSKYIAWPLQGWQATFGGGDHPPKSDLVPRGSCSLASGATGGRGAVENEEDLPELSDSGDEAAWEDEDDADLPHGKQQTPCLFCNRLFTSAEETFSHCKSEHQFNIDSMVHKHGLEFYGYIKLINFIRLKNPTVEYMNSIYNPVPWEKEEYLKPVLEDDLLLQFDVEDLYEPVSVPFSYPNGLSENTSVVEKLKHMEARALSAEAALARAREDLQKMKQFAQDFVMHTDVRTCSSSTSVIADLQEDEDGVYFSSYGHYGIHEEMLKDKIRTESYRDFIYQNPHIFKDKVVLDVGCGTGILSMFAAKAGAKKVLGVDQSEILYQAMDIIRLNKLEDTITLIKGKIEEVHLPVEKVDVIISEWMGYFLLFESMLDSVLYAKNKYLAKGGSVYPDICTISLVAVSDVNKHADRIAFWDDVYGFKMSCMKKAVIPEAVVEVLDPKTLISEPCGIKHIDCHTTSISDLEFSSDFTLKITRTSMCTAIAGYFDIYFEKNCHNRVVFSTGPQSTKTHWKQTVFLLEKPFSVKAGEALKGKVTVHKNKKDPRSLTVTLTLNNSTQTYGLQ

The term IC50 denotes the concentration at which inhibition is half-maximal. A lower IC50 goes with inhibition by little substance. What is called EC30 is the concentration needed for an effect of 30%. Take `CN(CCN)Cc1cn[nH]c1-c1ccc(F)cc1` [Compound 1]: the IC50 in assay [1] was in the range of 1.01 to 3 µM. Besides, the concentration for an effect of 30% (EC30) in assay [2] (setting [3]) lay in the range of 3.01 to 12 µM.

`CNCCN(C)Cc1c[nH]nc1-c1ccc(F)cc1` [Compound 2, N^1-((3-(4-fluorophenyl)-1H-pyrazol-4-yl)methyl)-N^1,N^2-dimethylethane-1,2-diamine] showed an IC50 in assay [1] of 3.01 to 10 µM. Also, in assay [2] (RKO, 72 h), the EC30 is above 12 µM.

In assay [1], `CN(CCN)Cc1cn(C)nc1-c1ccc(F)cc1` [Compound 3] displayed an IC50 above 10 µM. In assay [2] (setting [3]), the EC30 was above 12 µM.

`CN(CCN)Cc1cnn(C)c1-c1ccc(F)cc1` [Compound 4] yielded a concentration for half-maximal inhibition (IC50) in assay [1] above 10 µM. The compound further had an EC30 in assay [2] (RKO, 72 h) above 12 µM.

`CCN(CCNC)Cc1c[nH]nc1-c1ccc(F)cc1` [Compound 9] registered an IC50 in assay [1] of 3.01 to 10 µM. The EC30 in assay [2] (setting [3]) was above 12 µM.

The compound `CNCCN(C)Cc1cnn(C)c1-c1ccc(F)cc1` [Compound 10] gave a 50% inhibitory concentration (IC50) in assay [1] above 10 µM. Also, the EC30 in assay [2] (setting [3]) was above 12 µM.

With `CNCCN(C)Cc1cn(CC2CCOCC2)nc1-c1ccc(F)cc1` [Compound 11], the IC50 in assay [1] is above 10 µM. Moreover, in assay [2] (setting [3]), the EC30 is above 12 µM.

With `CNCCN(C)Cc1cnn(CC2CCOCC2)c1-c1ccc(F)cc1` [Compound 12], the IC50 in assay [1] was above 10 µM. In addition, in assay [2] (setting [3]), the EC30 is above 12 µM.

`CNCCN(C)Cc1c[nH]nc1-c1cccc(N)c1` [Compound 32] yielded a concentration for half-maximal inhibition (IC50) in assay [1] of 1.01 to 3 µM. For the same compound, in assay [2] (setting [3]), the EC30 was above 12 µM.

As to `CNCCN(C)Cc1c[nH]nc1-c1ccc(CC#N)cc1` [Compound 34], the half-maximal inhibitory concentration (IC50) in assay [1] is above 10 µM. Also, the EC30 in assay [2] (setting [3]) was above 12 µM.

Turning to `CNCCN(C)Cc1c[nH]nc1-c1ccccc1O` [Compound 35], the 50% inhibitory concentration (IC50) in assay [1] was above 10 µM. In assay [2] (setting [3]), the 30% effect concentration (EC30) is above 12 µM.

The compound `CNCCN(C)Cc1c[nH]nc1-c1ccccc1Oc1ccccc1` [Compound 36] had an IC50 in assay [1] above 10 µM. For the same compound, the 30% effect concentration (EC30) in assay [2] (setting [3]) is above 12 µM.

Compound `CNCCN(C)Cc1c[nH]nc1-c1cccc(OC(F)(F)F)c1` [Compound 39] gave an IC50 in assay [1] above 10 µM. The EC30 in assay [2] (setting [3]) was above 12 µM.

As for `CNCCN(C)Cc1c[nH]nc1-c1ccccc1NS(C)(=O)=O` [Compound 41], the concentration for half-maximal inhibition (IC50) in assay [1] was above 10 µM. In addition, the EC30 in assay [2] (setting [3]) was above 12 µM.

As for `CNCCN(C)Cc1c[nH]nc1-c1cccc(NC(C)=O)c1` [Compound 42], the concentration for half-maximal inhibition (IC50) in assay [1] lay in the range of 1.01 to 3 µM. In addition, in assay [2] (setting [3]), the EC30 is above 12 µM.

With `CNCCN(C)Cc1c[nH]nc1-c1cccc(C(C)=O)c1` [Compound 44], the IC50 in assay [1] was 3.01 to 10 µM. For the same compound, the EC30 in assay [2] (setting [3]) was above 12 µM.

`CNCCN(C)Cc1c[nH]nc1-c1ccc(C(=O)c2ccccc2)cc1` [Compound 45] returned a half-inhibitory concentration (IC50) in assay [1] of 3.01 to 10 µM. For the same compound, in assay [2] (setting [3]), the 30% effect concentration (EC30) was below 3 µM.

In turn, `CNCCN(C)Cc1c[nH]nc1-c1ccccc1-c1ccccc1` [Compound 46] displayed an IC50 in assay [1] above 10 µM. Moreover, the EC30 in assay [2] (setting [3]) was above 12 µM.

`CNCCN(C)Cc1c[nH]nc1-c1ccc(-c2ccccc2)cc1` [Compound 47] came in with an IC50 in assay [1] of 0.101 to 1 µM. For the same compound, the 30% effect concentration (EC30) in assay [2] (setting [3]) was below 3 µM.

For `CNCCN(C)Cc1c[nH]nc1-c1ccccc1F` [Compound 48], the IC50 in assay [1] is above 10 µM. Also, the concentration for an effect of 30% (EC30) in assay [2] (setting [3]) is above 12 µM.

For `CNCCN(C)Cc1c[nH]nc1-c1ccc(F)cc1F` [Compound 49], in assay [1], the IC50 was 3.01 to 10 µM. Moreover, in assay [2] (setting [3]), the EC30 is above 12 µM.

Compound `CNCCN(C)Cc1c[nH]nc1-c1cc(F)ccc1F` [Compound 50] showed an IC50 in assay [1] above 10 µM. Also, in assay [2] (setting [3]), the 30% effect concentration (EC30) is above 12 µM.

For `CNCCN(C)Cc1c[nH]nc1-c1ccc(F)c(F)c1` [Compound 51], in assay [1], the concentration for half-maximal inhibition (IC50) is 3.01 to 10 µM. Also, the EC30 in assay [2] (setting [3]) was above 12 µM.

`CNCCN(C)Cc1c[nH]nc1-c1ccc(OC)c(F)c1` [Compound 52] returned a concentration for half-maximal inhibition (IC50) in assay [1] of 3.01 to 10 µM. In addition, the EC30 in assay [2] (setting [3]) was above 12 µM.

Regarding `CNCCN(C)Cc1c[nH]nc1-c1cc(Cl)ccc1OC` [Compound 53], in assay [1], the IC50 is above 10 µM. Moreover, the 30% effect concentration (EC30) in assay [2] (setting [3]) was above 12 µM.

In turn, `CNCCN(C)Cc1c[nH]nc1-c1cccc(OC)c1OC` [Compound 54] had a half-inhibitory concentration (IC50) in assay [1] above 10 µM. Besides, in assay [2] (setting [3]), the EC30 is above 12 µM.

For the compound `CNCCN(C)Cc1c[nH]nc1-c1ccc(OC)cc1OC` [Compound 55], the IC50 in assay [1] is above 10 µM. The concentration for an effect of 30% (EC30) in assay [2] (setting [3]) was above 12 µM.

Take `CNCCN(C)Cc1c[nH]nc1-c1c(OC)cccc1OC` [Compound 56]: in assay [1], the IC50 was above 10 µM. In addition, in assay [2] (setting [3]), the 30% effect concentration (EC30) is above 12 µM.

Compound `CNCCN(C)Cc1c[nH]nc1-c1cccc2ccccc12` [Compound 57] registered an IC50 in assay [1] of 3.01 to 10 µM. For the same compound, the EC30 in assay [2] (setting [3]) is above 12 µM.

For `CNCCN(C)Cc1c[nH]nc1-c1ccc2ccccc2c1` [Compound 58], in assay [1], the concentration for half-maximal inhibition (IC50) was in the range of 3.01 to 10 µM. In assay [2] (setting [3]), the EC30 was above 12 µM.

On to `CNCCN(C)Cc1cn(CCC(O)CO)nc1-c1ccc(F)cc1` (centres unmarked) [Compound 59], for which the IC50 in assay [1] is above 10 µM. Besides, the EC30 in assay [2] (setting [3]) is above 12 µM.

As for `CCNCCN(C)Cc1c[nH]nc1-c1ccc(F)cc1` [Compound 60], the IC50 in assay [1] is above 10 µM. The EC30 in assay [2] (setting [3]) was above 12 µM.

On to `COCCn1cc(CN(C)CCN(C)C)c(-c2ccc(F)cc2)n1` [Compound 61], for which the IC50 in assay [1] was above 10 µM. The EC30 in assay [2] (setting [3]) is above 12 µM.

`CCN(CCN)Cc1c[nH]nc1-c1ccc(F)cc1` [Compound 62] registered an IC50 in assay [1] of 3.01 to 10 µM. For the same compound, the EC30 in assay [2] (setting [3]) was above 12 µM.

`CCCN(CCN)Cc1c[nH]nc1-c1ccc(F)cc1` [Compound 63] returned a half-maximal inhibitory concentration (IC50) in assay [1] above 10 µM. Further, the EC30 in assay [2] (setting [3]) is above 12 µM.

In assay [1], `COCCn1ncc(CN(C)CCN(C)C)c1-c1ccc(F)cc1` [Compound 64] had an IC50 above 10 µM. The compound also came in with an EC30 in assay [2] (RKO, 72 h) above 12 µM.

Take `CN(CCN)Cc1cnn(CCO)c1-c1ccc(F)cc1` [Compound 65]: the half-maximal inhibitory concentration (IC50) in assay [1] is above 10 µM. Further, in assay [2] (setting [3]), the concentration for an effect of 30% (EC30) is above 12 µM.

`CN(CCN)Cc1cn(CCO)nc1-c1ccc(F)cc1` [Compound 66] showed an IC50 in assay [1] above 10 µM. Besides, the EC30 in assay [2] (setting [3]) was above 12 µM.

`CC(C)Oc1ccc(-c2n[nH]cc2CN(C)CCN)cc1` [Compound 67]: the concentration for half-maximal inhibition (IC50) in assay [1] was in the range of 3.01 to 10 µM. The concentration for an effect of 30% (EC30) in assay [2] (setting [3]) is above 12 µM.

Consider `CN(CCN)Cc1c[nH]nc1-c1ccc(C#N)cc1` [Compound 68], for which, in assay [1], the IC50 is 3.01 to 10 µM. Moreover, the 30% effect concentration (EC30) in assay [2] (setting [3]) is above 12 µM.

For the compound `CN(CCN)Cc1n[nH]cc1-c1ccc(F)cc1` [Compound 69], the IC50 in assay [1] is above 10 µM. In assay [2] (setting [3]), the 30% effect concentration (EC30) was 3.01 to 12 µM.

For `CN(CCN)Cc1c[nH]nc1-c1cccc(C#N)c1` [Compound 70], the IC50 in assay [1] is above 10 µM. Further, the concentration for an effect of 30% (EC30) in assay [2] (setting [3]) was above 12 µM.

With `CN(CCN)Cc1c[nH]nc1-c1cccc(F)c1` [Compound 71], the IC50 in assay [1] is above 10 µM. For the same compound, the concentration for an effect of 30% (EC30) in assay [2] (setting [3]) lay within 3.01 to 12 µM.

`CN(CCN)Cc1c[nH]nc1-c1ccccc1F` [Compound 72] gave an IC50 in assay [1] above 10 µM. The EC30 in assay [2] (setting [3]) is above 12 µM.

For `CN(CCN)Cc1c[nH]nc1-c1ccccc1` [Compound 73], in assay [1], the IC50 is above 10 µM. Further, the EC30 in assay [2] (setting [3]) was above 12 µM.

Consider `CN(CCN)Cc1c[nH]nc1-c1ccc(C(C)(C)C)cc1` [Compound 74], for which the half-maximal inhibitory concentration (IC50) in assay [1] is above 10 µM. In addition, in assay [2] (setting [3]), the EC30 fell in the range of 3.01 to 12 µM.

In assay [1], `CC(C)N(CCN)Cc1c[nH]nc1-c1ccc(F)cc1` [Compound 75] returned an IC50 above 10 µM. The concentration for an effect of 30% (EC30) in assay [2] (setting [3]) was above 12 µM.

`CN(CCN)Cc1cn(CC(O)CO)nc1-c1ccc(F)cc1` (centres unmarked) [Compound 76] returned a half-maximal inhibitory concentration (IC50) in assay [1] above 10 µM. Also, in assay [2] (setting [3]), the EC30 was above 12 µM.

For the compound `CN(CCN)Cc1cn(C2COC2)nc1-c1ccc(F)cc1` [Compound 77], in assay [1], the IC50 was in the range of 3.01 to 10 µM. For the same compound, the EC30 in assay [2] (RKO, 72 h) is above 12 µM.
